The source of these data is patent US7723356B2, “Quinuclidine derivatives and their use as muscarinic m3 receptor antagonists” (Novartis AG, priority 2004, dated 2010).

For the first assay, the target named is T1, human muscarinic acetylcholine M3 receptor (Homo sapiens, UniProt P20309).
T1 construct: expressed in transfected cells; host or cells: CHO cells (stably transfected), membrane preparation
T1 sequence (P20309 whole entry): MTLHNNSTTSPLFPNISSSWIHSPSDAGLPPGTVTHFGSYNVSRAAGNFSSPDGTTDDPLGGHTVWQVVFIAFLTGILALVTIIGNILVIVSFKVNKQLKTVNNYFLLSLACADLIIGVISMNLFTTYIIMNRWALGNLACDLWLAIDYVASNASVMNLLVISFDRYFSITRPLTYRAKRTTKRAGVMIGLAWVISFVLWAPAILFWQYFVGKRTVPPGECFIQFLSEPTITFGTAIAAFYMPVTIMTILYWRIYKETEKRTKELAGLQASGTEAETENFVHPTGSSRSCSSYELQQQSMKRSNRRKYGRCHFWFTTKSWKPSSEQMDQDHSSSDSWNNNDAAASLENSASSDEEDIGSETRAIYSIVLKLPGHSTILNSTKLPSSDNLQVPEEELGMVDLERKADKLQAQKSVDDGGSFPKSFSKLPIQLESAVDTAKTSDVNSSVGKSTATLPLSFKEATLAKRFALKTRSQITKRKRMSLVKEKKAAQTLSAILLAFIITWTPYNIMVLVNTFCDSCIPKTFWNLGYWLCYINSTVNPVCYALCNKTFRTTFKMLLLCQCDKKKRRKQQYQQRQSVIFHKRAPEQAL
Put plainly: competitive filtration binding assay with [3H] n-methyl scopolamine (NMS). To be noted: M3 Ki, membranes from CHO cells stably transfected with human M3 receptor; [3H]NMS 0.25 nM; 17 hours at room temperature; Cheng-Prusoff correction. How it is done:
The affinity (Ki) of agents of the invention at the human muscarinic acetylcholine M3 receptor can be determined in a competitive filtration binding assay with the radio-labelled antagonist [^3H] n-methyl scopolamine methyl chloride. (NMS):
Membranes prepared from CHO cells stably transfected with human M3 receptor at 10 μg protein/well are incubated with serial dilutions of the agents of the invention, [^3H]NMS (0.25 nM) and assay buffer (20 mM HEPES, 1 mM MgCl2 at pH 7.4) for 17 hours at room temperature. The assay is carried out in a 250 μL final volume, in the presence of a final dimethyl sulfoxide concentration of 1%. Total binding of [^3H]NMS is determined in the absence of the agents of the invention with a corresponding substituted volume of assay buffer. Non-specific binding of [^3H] NMS is determined in the presence of 300 nM ipratropium bromide. Following the incubation period, the membranes are harvested onto a Unifilter™ GF/B filter plate containing 0.05% polyethyleneimine, using a Brandel™ filtration harvester 9600. Filter plates are dried for two hours at 35° C. before the addition of Microscint™ ‘O’ cocktail, and read on a Packard Topcount™ scintillator using a ^3H-Scintillation protocol. All IC50s are calculated with the aid of XL-Fit graph package and Ki values derived using the Cheng-Prusoff correction (Cheng Y., Prusoff W. H. (1973) Biochem. Pharmacol 22 3099-3109).
For `O=C(C[N+]12CCC(CC1)[C@@H](OC(=O)C(O)(c1ccccc1Cl)c1ccccc1Cl)C2)Nc1ccon1` [Example 1, (R)-3-[2,2-Bis-(2-chloro-phenyl)-2-hydroxy-acetoxy]-1-(isoxazol-3-ylcarbamoylmethyl)-1-azonia-bicyclo[2.2.2]octane bromide], affinity was put at a Ki of 2.3 nM. Consider `Cc1ccc(C(O)(C(=O)O[C@H]2C[N+]3(CC(=O)Nc4ccon4)CCC2CC3)c2ccc(C)cc2)cc1` [Example 2, (R)-3-(2-Hydroxy-2,2-di-p-tolyl-acetoxy)-1-(isoxazol-3-ylcarbamoylmethyl)-1-azonia-bicyclo[2.2.2]octane bromide], for which the Ki was 1.4 nM. Against the preceding compound, the Ki is about 1.6-fold lower.

Turning to `CC(C(=O)O[C@H]1C[N+]2(CC(=O)Nc3ccon3)CCC1CC2)(c1ccccc1)c1ccccc1` [Example 4, (R)-3-(2,2-Diphenyl-propionyloxy)-1-(isoxazol-3-ylcarbamoylmethyl)-1-azonia-bicyclo[2.2.2]octane bromide], affinity was put at a Ki of 0.65 nM. `O=C(C[N+]12CCC(CC1)[C@@H](OC(=O)C(c1ccccc1)c1ccccc1)C2)Nc1ccon1` [Example 5, (R)-3-Diphenylacetoxy-1-(isoxazol-3-ylcarbamoylmethyl)-1-azonia-icyclo[2.2.2]octane bromide] returned a Ki of 0.63 nM.

Regarding `O=C(C[N+]12CCC(CC1)[C@@H](OC(=O)C(O)(c1ccccc1)C1CCCCC1)C2)Nc1ccon1` (stereo partly drawn) [Example 8, (R)-3-(2-Cyclohexyl-2-hydroxy-2-phenyl-acetoxy)-1-(isoxazol-3-ylcarbamoylmethyl)-1-azonia-bicyclo[2.2.2]octane bromide], the affinity, expressed as Ki, was 0.75 nM.

Staying with this assay, now noted: M3 pKi, membranes from CHO cells stably transfected with human M3 receptor; [3H]NMS 0.25 nM.
For the compound `O=C(C[N+]12CCC(CC1)[C@@H](OC(=O)C(O)(c1ccccc1)C1CCCCC1)C2)Nc1ccon1` (stereo partly drawn) [Example 8, (R)-3-(2-Cyclohexyl-2-hydroxy-2-phenyl-acetoxy)-1-(isoxazol-3-ylcarbamoylmethyl)-1-azonia-bicyclo[2.2.2]octane bromide], the Ki is 0.0126 nM. Same read-out and setting: with `O=C(C[N+]12CCC(CC1)[C@@H](OC(=O)C(O)(c1cccs1)C1CCCCC1)C2)Nc1ccon1` (stereo partly drawn) [Example 10, (R)-3-(2-Cyclohexyl-2-hydroxy-2-thiophen-2-yl-acetoxy)-1-(isoxazol-3-ylcarbamoylmethyl)-1-azonia-bicyclo[2.2.2]octane bromide] the figure was 0.0115 nM. Compound `O=C(C[N+]12CCC(CC1)[C@@H](OC(=O)C(O)(c1ccccc1)C1CCCC1)C2)Nc1ccon1` (stereo partly drawn) [Example 11, (R)-3-(2-Cyclopentyl-2-hydroxy-2-phenyl-acetoxy)-1-(isoxazol-3-ylcarbamoyl-methyl)-1-azonia-bicyclo[2.2.2]octane bromide] had a Ki of 0.00631 nM.
